From publication PMC9666555, “Genuine selective caspase-2 inhibition with new irreversible small peptidomimetics” (Cell Death & Disease, 2022)
Values joined by “and” are separate entries in the source; they are usually repeats but may differ in a detail not shown here. Identical values can stand only once. Like-named read-outs stand apart in the source and are kept apart here. One block for each molecule: values may come before it. Residues, ends and D or L forms follow the SMILES beside them. *: point of attachment. X1 = O=C(O)CC(N*)C(=O)COc1c(F)cccc1F; Quinaldoyl = O=C(c1ccc2ccccc2n1)*; Cbz = O=C(OCc1ccccc1)*; CH2F = FC*

What was measured:
recombinant human Casp2 = target: T1, recombinant human Casp2 (Homo sapiens, UniProt P42575); assay: Enzyme mechanistic studies (Ki, k3, k3/KI), Caspase-2; type: biochemical; details: for Ki ratio (Casp3/Casp2): reversible inhibitors
T1 sequence (P42575 170-325 limits assumed): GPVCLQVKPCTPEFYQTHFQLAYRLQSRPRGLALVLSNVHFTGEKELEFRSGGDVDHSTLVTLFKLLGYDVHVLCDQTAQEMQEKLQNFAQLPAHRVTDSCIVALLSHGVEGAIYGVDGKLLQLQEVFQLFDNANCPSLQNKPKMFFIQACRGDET
T1 sequence (P42575 348-452 limits assumed): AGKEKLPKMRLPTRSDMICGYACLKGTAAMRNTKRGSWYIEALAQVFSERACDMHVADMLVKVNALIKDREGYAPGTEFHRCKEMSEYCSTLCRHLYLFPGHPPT
Description: (§1) For reversible inhibitors, the mechanisms of inhibition were determined by varying substrate and inhibitor concentrations and using Lineweaver−Burk representations to determine the inhibition constants Ki of competitive inhibitors (Ki = [E][I]/[EI]). For suicide inhibitors, inactivation can be represented by the minimum kinetic scheme (Eq. 2), where E and I are the free forms of enzyme and inhibitor, E * I a kinetic chimera of the Michaelis complex and E − I the covalent complex (inactivated enzyme).2 E+I⇄KIE*I→k3E−I
(§2) KI and k3 are the kinetic constants characterizing the inactivation process and the k3/KI ratio is an index of the inhibitory potency. The first-order rate constant, k3, and the apparent dissociation constant, KI, were determined for Caspase-2 and -3 using the progress curve method. Briefly, the enzyme activities were measured continuously for 120 min. To determine the kinetic parameters, progress curves were obtained at several inhibition concentrations using fixed substrate concentration. The product released for each inhibitor concentration was plotted versus the time following Eq. 3 where the constant π depended on [I]’, a modified inhibitor concentration due to substrate competition, according to Eq. 4. [I]’ is defined by Eq. 5, where KM was Michaelis constant for the enzymatic hydrolysis of the appropriate fluorogenic substrate. The ratio k3/KI was obtained by fitting the experimental data to the equations (F.U., fluorescence unit):3 F.U.=∫0tvidt+F.U0−vo×e^−π×t/π+F.U.0 4 π=k3×[I]^′/KI+[I]^′ 5 [I]^′=[I]/1+S/KM
Linear and nonlinear regression fits of the experimental data to the equations were performed with KaleidaGraph software. The experimental conditions were [Caspase-2]0 = 0.2 nM, [Ac-VDVAD-AMC]0 = 25 µM and [Caspase-3]0 = 0.1 nM, [Ac-DEVD-AMC]0 = 10 µM; [I]0 = 0–100 µM.

recombinant human Casp3 = target: T2, recombinant human Casp3 (Homo sapiens, UniProt P42574); assay: Enzyme mechanistic studies (Ki, k3, k3/KI), Caspase-3; type: biochemical
T2 sequence (P42574 29-175 limits assumed): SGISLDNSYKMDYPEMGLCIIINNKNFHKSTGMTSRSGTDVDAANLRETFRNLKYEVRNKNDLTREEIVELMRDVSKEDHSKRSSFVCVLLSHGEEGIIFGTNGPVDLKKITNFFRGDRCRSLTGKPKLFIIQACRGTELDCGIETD
T2 sequence (P42574 176-277 limits assumed): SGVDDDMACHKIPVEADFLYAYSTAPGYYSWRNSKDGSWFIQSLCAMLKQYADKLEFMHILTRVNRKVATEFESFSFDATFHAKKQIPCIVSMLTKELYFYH
Description: as §1, §2
Linear and nonlinear regression fits of the experimental data to the equations were performed with KaleidaGraph software.

HeLa cells = assay: Vincristine-induced HeLa cell death (propidium iodide, flow cytometry); type: cell-based, human; details: 1 h pretreatment, 20 nM vincristine 44 h; for inhibition of vincristine-induced cell death: inhibitor 30 µM; for effect against vincristine-induced cell death: indicated doses
Description: HeLa cells (obtained from ATCC) were cultured in Dulbecco’s Modified Eagle Medium (DMEM, High Glucose, GlutaMAX™, Pyruvate) supplemented with antibiotics and 10% fetal calf serum (FCS) (Gibco, Life Technologies) and maintained in T75 Flasks at 1 × 10^6 cells per flask. Twenty-four hours before treatments, HeLa cells were transferred to 6-well plates (8 × 10^4 cells/well). The lymphoblastoid cell line Molt4cl8 was a gift from Dr. Bernard Krust (Inserm, University Paris 5) and was cultured in RPMI 1640 Glutamax medium supplemented with Hepes, antibiotics, and 10% FCS. HEK293 cells were obtained from ATCC (CRL-1573) and cultured in DMEM with Glutamax and 25 mM glucose (Life Technologies) supplemented with 10% FCS and antibiotics. For cell death induction, the following agents were added to cell cultures: Vincristine (Sigma) and Panobistat (LBH589; Selleck). Cell death was analyzed using fluorescence microscopy (Axio-observer Z1, Zeiss; equipped with CCD camera CoolsnapHQ2, Ropert Scientific) and cytofluorometry (MACSQuant® VYB; Miltenyi Biotec, Bergisch Gladbach, Germany) after labeling with propidium iodide (1 µg/mL; 10 min; 37 °C; Life Technologies) and Hoechst 33342 (1 µg/mL; 5 min; RT; Sigma).
Fig. 2 q33 and h33 are protective against the cytocidal effect of Vincristine. a Vincristine induces HeLa cell death. Cells were incubated for 44 h at 37 °C with 20 nM Vincristine (VCR), then incubated with propidium iodide at 2 μg/mL for 10 min and analyzed by flow cytometry to quantify plasma membrane permeabilization. Histograms show fluorescence intensity detected by flow cytometry (one representative experiment) in the presence (VCR) or Absence (Co.) of Vincristine. % of propidium iodide-positive cells are indicated for both conditions. b Dose–response of Vincristine-induced cell death. HeLa cells were incubated and treated as in (a) with the indicated doses of Vincristine (VCR) and analyzed by flow cytometry. […] Representative fluorescence microscopy micrographs of cells treated for 44 h with 20 nM vincristine (VCR) or not (Co.) and stained with Hoechst 33342. Vincristine induces progressive nuclear changes with first condensed nuclei (arrows) and then apoptotic bodies (dashed arrow). d Broad-spectrum irreversible caspase inhibitors prevent vincristine-induced cell death. HeLa cells were pretreated for 1 hr with the indicated broad-spectrum irreversible caspases inhibitors (z-VAD(OMe)-fmk at 30 μM, Q-VD-OPh 30 μM, Emricasan 10 μM, or the negative control Q-VE-OPh 30 μM), then treated with vincristine as in panel (a), and analyzed by flow cytometry. Histograms show the mean ± SD of 3 independent experiments (***p value < 0.001). e Effect of the reversible Caspase-2 inhibitors q33 and h33 against vincristine-induced cell death. HeLa cells were pretreated for 1 h with the indicated doses of q33 or h33, then treated with vincristine as in panel a, and analyzed by flow cytometry. Histograms show the mean ± SD of three independent experiments (*p value < 0.1). TEXT PRINTED IN THE PICTURE: (a) VCR: 39,5 % DOUBTS OF THE COPYIST ABOUT THIS PICTURE: Panel a: the picture prints no measure beside "39,5 %" and "4.1%". I assigned 39,5 % to VCR only because it stands by the grey VCR peak. / Panel a: "4.1%" seems to belong to the untreated control (Co.). That is not a substance, so it is left out.
Fig. 5 LJ2 inhibits cell death induced by microtubule destabilization and hydroxamic acid-based deacetylase (HDAC) inhibition. a Effect of the irreversible Caspase-2 inhibitors LJ2 against vincristine-induced cell death. HeLa cells were pretreated for 1 h with the indicated doses of LJ2, Q-VD-OPh, or Q-LETD-OPh, then treated with vincristine (VCR) as in Fig. 2, then incubated with propidium iodide at 2 μg/mL for 10 min and analyzed by flow cytometry. Histogram data are mean ± SD (n = 3, *p value < 0.01). b Effect of Caspases-inhibitors against Panobistat (LBH589)-induced cell death. […]

[1] = target: T3, human active recombinant Caspase-3 (Homo sapiens, UniProt P42574); assay: In vitro caspase activity and inhibition assay (IC50), Caspase-3; type: biochemical
T3 sequence (P42574 29-175 limits assumed): T2 sequence (P42574 29-175 limits assumed)
T3 sequence (P42574 176-277 limits assumed): T2 sequence (P42574 176-277 limits assumed)
Description: The human active recombinant Caspase-3 (#707-C3) was purchased from R&D Systems (Minneapolis, USA). […] Stock solutions were stored at −80 °C. […] Caspase inhibitors were solubilized in DMSO at 10 mM and stored at −80 °C.
Initial velocity (V0) was determined from the linear portion of the progress curve. The composition of the activity buffer was: 20 mM HEPES, pH 7.4; 0.1% CHAPS, 5 mM DTT, 2 mM EDTA; 800 mM sodium succinate for Caspase-2 (0.2 nM) with 25 µM of Ac-VDVAD-7-amino-3-methylcoumarin (AMC) and 20 mM HEPES, pH 7.4; 0.1% CHAPS, 5 mM DTT, 2 mM EDTA; supplemented with 1 mg/mL of stabilizing agent bovine serum albumin (BSA) for Caspase-3 (0.1 nM) with 10 μM of Ac-DEVD-AMC. Compounds (0.001–100 µM) were tested in duplicate for each inhibitor concentration to detect their inhibitory potential. Enzymes and compounds were incubated for 30 min before initiating enzymatic reaction by adding substrate. Initial rates determined in control experiments (V0) were considered as 100% of the caspase activity; initial rates that were below 100% in the presence of tested compound (Vi) were considered as inhibition. The inhibitory activity of compounds was expressed as IC50 (Inhibitor concentration giving 50% inhibition). The values of IC50 were calculated by fitting the experimental data using Mars data Analysis 2.0 and KaleidaGraph software.1 %Inhibition=1001−Vi/V0=100I0/IC50+I0

[2] = target: T4, human active recombinant caspase-2 (Homo sapiens, UniProt P42575); assay: In vitro caspase activity and inhibition assay (IC50), Caspase-2; type: biochemical
T4 sequence (P42575 170-325 limits assumed): T1 sequence (P42575 170-325 limits assumed)
T4 sequence (P42575 348-452 limits assumed): T1 sequence (P42575 348-452 limits assumed)
Description: Stock solutions were stored at −80 °C.

[3] = test system: Casp2-S1P-SREBP2 activation pathway in HEK 293 cells; assay: Casp2-dependent S1P cleavage and SREBP2 activation in transfected HEK 293 cells (WB); details: 10 µM, 16 h
Description: To test SREBP processing, HEK 293 (ATCC® CRL-1573) cells were plated at a density of 0.5 × 10^5 per well (6-well plates). The next day, 1 μg of each cDNAs were transfected using lipofectamine 3000 (Thermo Fisher Scientific, MA) according to the manufacturer’s instruction. cDNAs used were empty vector (EV), Casp2-HA, PIDD-Flag, RAIDD-His, Myc-S1P, and V5-SREBP2. After 4 h, cells were incubated in DMEM/F12 medium supplemented with indicated Casp2 inhibitors (10 μM) for 16 h. Whole-cell lysates were prepared in lysate buffer (150 mM Tris-HCl, pH 7.4, 10% sodium-deoxycholate, 100 mM NaCl, 100 mM EDTA, 100 mM PMSF, 200 mM NaF, 100 mM Na3VO4, and a mixture of protease inhibitors). […] Equal quantities of proteins were subjected to immunoblot (WB) analysis with anti-Flag (#F7425 Sigma-Aldrich), anti-HA (#1867431, Roche), anti-Casp2 (#ALX-804-356, 11B4, Enzo Life Sciences), anti-V5 monoclonal antibody (#13202, Cell Signaling Technology), anti-Casp3 (#9661, #9662, #9664, Cell Signaling Technologies), and anti-HSP90 (#sc-101494, Santa Cruz Technologies).
HEK 293 cells were transfected with indicated plasmids in order to overexpress SREBP2, S1P, RAIDD, PIDD1, and Casp-2. […] HEK 293 cells were transfected with the indicated plasmids. […] Then, whole cell extracts (WCL) were prepared and subjected to WB analysis to detect Casp2 (through HA tag), RAIDD (through 6HIS tag), and PIDD1, PIDD1-C, PIDD1-CC (through Flag tag).

[4] = test system: Swiss mice hippocampal neurons; assay: Aβ oligomer-induced dendritic spine loss in hippocampal primary cultures; type: cell-based, mouse; details: 100 nM, 6 h of exposure
Description: For the monoculture model (MBBT4 devices), 20 × 10^3 hippocampal neurons were seeded in each chamber. For the compartmentalized coculture model (neuronal diode in MBBT5 devices), 40 × 10^3 cortical cells and 15 × 10^3 hippocampal cells were seeded in each input chamber and output chamber, respectively. The culture medium was renewed every 5 days. Microfluidic chips were placed in Petri dishes containing 0.1% EDTA (Sigma) and incubated at 37 °C in a 5% CO2 atmosphere. In the neuronal diodes, cortical axons entered the microchannels and reached the hippocampi chamber in around 4–5 days. In both the monoculture and coculture systems, cells were cultured for 3 weeks to allow high dendrites and synapse density and intense electrical firing.
Cells were treated with caspase inhibitors and/or Aβ1–42 at 20 days in vitro. For the hippocampal monocultures, the culture medium was removed and replaced by fresh medium optionally containing 10 nM Aβ1–42 oligomers or monomers, with or without caspase inhibitors. After 6 h, cells were fixed, permeabilized, and subjected to immunolabelling. For cortico-hippocampal compartmentalized cocultures, the medium of the input chamber (cortical) was replaced by fresh medium optionally containing 100 nM Aβ1–42 oligomers or monomers, whereas the medium of the output (hippocampal) chamber was replaced by fresh medium optionally containing, or not, caspases inhibitors. […]
Immunostaining was performed directly in microfluidic chambers as described [38]. […] Images were analyzed using ImageJ software (NIH, Bethesda, MD, USA).
Synaptic disconnection was assessed as described [39] with slight modifications. Briefly, in hippocampal monocultures, synaptic disconnection was assessed through fluorescence microscopy by counting phalloidin clusters affixed to MAP2 and Bassoon. In cortico-hippocampal compartmentalized cocultures, synaptic disconnection was assessed by counting α-Synuclein presynaptic clusters affixed to MAP2-positive hippocampal dendrites. […] The images were similarly processed with ImageJ software before being used for quantification: the brightness/contrast of all control images were optimized manually to eliminate the background and to maximize the signal. The means of the minimum and maximum intensities were then calculated in the control condition and these settings were applied to all images. The brightness/contrast of all images was optimized manually to eliminate the background and maximize the intensity of the signal. α-synuclein/ MAP2 and Phalloidin/MAP2/Bassoon merges were then used for quantification. The number of spines was determined by counting individual clusters along ten dendritic regions (100 µm length each) in three independent experiments for every epitope. Only synapses detected on or near the neurites were included for analysis.

[5] = irreversible inhibitors, progress curve method
[6] = reversible competitive inhibitors, Lineweaver-Burk, read-out: Enzyme assays Casp2 Ki
[7] = reversible competitive inhibitors, Lineweaver-Burk, read-out: Enzyme assays Casp3 Ki (converted)
[8] = 30 min preincubation, 0.1 nM Caspase-3, 10 µM Ac-DEVD-AMC, read-out: Enzyme assays Casp3 IC50 (converted)
[9] = 30 min preincubation, 0.2 nM Caspase-2, 25 µM Ac-VDVAD-AMC, read-out: Enzyme assays Casp2 IC50

Molecule: CC(C)[C@H](NC(=O)c1ccc2ccccc2n1)C(=O)N[C@@H](CC(=O)O)C(=O)N[C@H](C(=O)N1CC[C@H](CC(C)(C)C)[C@H]1C(=O)NC(CC(=O)O)C(=O)COc1c(F)cccc1F)C(C)C (stereo partly shown) [LJ3b]
k3/Ki ratio against Casp2, times lower than the one of the a isomer (LJ2a or LJ3a) (recombinant human Casp2): more than 2000 times
Casp2 k3/KI (recombinant human Casp2; [5]): 823 M⁻¹ s⁻¹
Ki (recombinant human Casp2; irreversible inhibitors, progress curve method, read-out: Casp2 KI): 8540 ± 300 nM
Casp3 k3 (recombinant human Casp3; [5]): 0.8 ± 6 × 10^−5 ms^−1
Casp3 k3/KI (recombinant human Casp3; [5]): 9 M⁻¹ s⁻¹
Ki (recombinant human Casp3; irreversible inhibitors, progress curve method, read-out: Casp3 KI): 84200 nM

Molecule: CC(C)C(NC(=O)c1ccc2ccccc2n1)C(=O)NC(CCC(=O)O)C(=O)COc1c(F)cccc1F (stereo not shown) [Q-VE-OPh]
inhibition of vincristine-induced cell death (HeLa cells): not

Molecule: CC(=O)N[C@H](C(=O)N[C@@H](CC(=O)O)C(=O)N[C@H](C(=O)N1CC[C@@H](OC(C)C)[C@@H]1C(=O)N[C@H]1CC(=O)OC1O)C(C)C)C(C)C (stereo partly shown) [c33, reference compound]
Ki (recombinant human Casp2; [6]): 122 nM
IC50 [1]: 6720 nM
IC50 [2]: 271 nM
Ki (recombinant human Casp3; [7]): 2440 nM

Ki (recombinant human Casp2; [6]): 10.9 nM
Ki ratio (Casp3/Casp2) (recombinant human Casp2): 597
IC50 [1, 8]: 4570 nM
IC50 [2, 9]: 11 nM
Ki (recombinant human Casp3; [7]): 6510 nM
Molecule: CC(=O)N[C@H](C(=O)N[C@@H](CC(=O)O)C(=O)N[C@H](C(=O)N1CC[C@H](CC(C)(C)C)[C@@H]1C(=O)N[C@H]1CC(=O)OC1O)C(C)C)C(C)C (stereo partly shown) [h33, reference compound]
effect against vincristine-induced cell death (HeLa cells): showed cytoprotective effect

Molecule: CC(=O)NC(C(=O)NC(CC(=O)O)C(=O)NC(C(=O)N1CCC(c2ccccc2)C1C(=O)NC1CC(=O)OC1O)C(C)C)C(C)C (stereo not shown) [k33, reference compound]
Ki (recombinant human Casp2; [6]): 90.5 nM
IC50 [1]: 1960 nM
IC50 [2]: 178 nM
Ki (recombinant human Casp3; [7]): 2770 nM

Ki (recombinant human Casp2; [6]): 24 nM
Ki ratio (Casp3/Casp2) (recombinant human Casp2): 94.5
IC50 [1, 8]: 2540 nM
IC50 [2, 9]: 15 nM
Ki (recombinant human Casp3; [7]): 2370 nM
Molecule: CC(=O)N[C@H](C(=O)N[C@@H](CC(=O)O)C(=O)N[C@H](C(=O)N1CCc2ccc(C)cc2[C@@H]1C(=O)N[C@H]1CC(=O)OC1O)C(C)C)C(C)C (stereo partly shown) [q33, reference compound]
effect against vincristine-induced cell death (HeLa cells): showed cytoprotective effect

Molecule: COC(=O)C[C@H](NC(=O)[C@H](C)NC(=O)[C@@H](NC(=O)OCc1ccccc1)C(C)C)C(=O)CF [z-VAD(Ome)-fmk] (Cbz-Val-Ala-Asp(OMe)-CH2F)
inhibition of vincristine-induced cell death (HeLa cells): more than 80%

Molecule: CC(C)[C@H](NC(=O)c1ccc2ccccc2n1)C(=O)N[C@@H](CC(=O)O)C(=O)N[C@H](C(=O)N[C@@H](C)C(=O)NC(CC(=O)O)C(=O)COc1c(F)cccc1F)C(C)C (stereo partly shown) [Δ2Me-TRP601, Quinolin-2-carbonyl-VDVAD-CH2-O(2,6F2)Ph, reference compound] (Quinaldoyl-VDVA-X1)
Casp2 k3 (recombinant human Casp2; [5]): 8,08 ms^−1
Casp2 k3/KI (recombinant human Casp2; [5]): ~ 1,586,020 M^−1 s^−1 and 1 586 020 M^−1 s^−1
KI (inactivation) (recombinant human Casp2; [5]): 5.49 nM
IC50 [1]: 0.31 ± 0.01 nM
Casp3 k3 (recombinant human Casp3; [5]): 1,85 ms^−1
Casp3 k3/KI (recombinant human Casp3; [5]): 1 613 405 M^−1 s^−1
KI (inactivation) (recombinant human Casp3; [5]): 1.17 nM
S1P cleavage [3]: abolished
SREBP2 activation [3]: abolished
impact on RAIDD, PIDD1, and Casp2 expression [3]: no significant impact

Molecule: Aβ1–42 oligomers: oligomers of human β-amyloid1-42 peptide [reference compound]
decrease in spine density [4]: 50%

Molecule: Q-LETD-OPh
effect against vincristine-induced cell death (HeLa cells): no effect
